Test results as given in ChEMBL document CHEMBL1144267, “New conformationally locked bicyclic N,O-nucleoside analogues of antiviral drugs” (2005).

Tests used:
Assay type in all cases: functional
[1] = tested on: Human alphaherpesvirus 1; assay: Antiviral efficacy in Vero cells infected with HSV-1 at concentration of 400 uM
[2] = tested on: Human alphaherpesvirus 1; assay: Antiviral efficacy in Vero cells infected with HSV-1 at concentration of 100 uM
[3] = tested on: Human alphaherpesvirus 1; assay: Antiviral efficacy in Vero cells infected with HSV-1 at concentration of 800 uM
[4] = tested on: Human alphaherpesvirus 1; assay: Antiviral efficacy in Vero cells infected with HSV-1 at concentration of 200 uM

SMILES | Cells killed [1] [%] | Cells killed [2] [%] | Cells killed [3] [%] | Cells killed [4] [%]
Cc1cn(C2CC3CCCN3O2)c(=O)[nH]c1=O (configuration not stated) | -12 | -5 | -55 | -10
Nc1ccn(C2CC3CCCN3O2)c(=O)n1 (configuration not stated) | -6 | -3 | -67 | -3
O=c1ccn(C2CC3CCCN3O2)c(=O)[nH]1 (configuration not stated) | -70 | -41 | -83 | -55
